Biological target: T1, GAC (Mus musculus, UniProt D3Z7P3)
T1 construct: (residues 72-603) was cloned into a pET23a vector; His-tag with thrombin cleavage site (N, cleaved yes); made in house
T1 sequence (D3Z7P3 72-603 isoform D3Z7P3-2): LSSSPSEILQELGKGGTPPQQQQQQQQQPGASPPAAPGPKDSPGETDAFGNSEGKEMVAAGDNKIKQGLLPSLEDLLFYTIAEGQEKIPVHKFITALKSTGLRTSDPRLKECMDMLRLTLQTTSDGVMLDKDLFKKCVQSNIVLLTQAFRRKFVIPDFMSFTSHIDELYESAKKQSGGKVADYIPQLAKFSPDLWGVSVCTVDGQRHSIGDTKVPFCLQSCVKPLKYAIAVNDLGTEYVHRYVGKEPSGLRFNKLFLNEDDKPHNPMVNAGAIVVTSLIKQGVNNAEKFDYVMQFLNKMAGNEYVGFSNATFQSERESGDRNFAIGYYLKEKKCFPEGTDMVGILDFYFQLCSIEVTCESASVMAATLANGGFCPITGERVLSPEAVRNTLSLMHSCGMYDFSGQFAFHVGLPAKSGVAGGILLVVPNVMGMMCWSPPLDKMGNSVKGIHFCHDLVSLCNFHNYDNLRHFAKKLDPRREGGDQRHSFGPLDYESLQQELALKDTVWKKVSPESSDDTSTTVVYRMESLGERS
Assay: Real-time GAC enzyme activity assay coupled to glutamate dehydrogenase (NADH fluorescence)
Type: biochemical
Method: A plasmid encoding the mouse kidney-type glutaminase isoform 2 (GAC, GenBank Accession No. NP_001106854.1, which is hereby incorporated by reference in its entirety) (residues 72-603) was cloned into a pET23a vector containing an N-terminal histidine (His)-tag and thrombin cleavage site. The expressed protein was purified using Co^2+ affinity beads (Clontech), followed by His-tag cleavage with human thrombin (Haemetologic Technologies) overnight at 4° C., and subsequently purified by anion exchange (GE healthcare) and gel filtration chromatography. Purified GAC was stored in a high salt-containing buffer (20 mM Tris-HCl pH 8.5, 500 mM NaCl, 1 mM NaN3) at −80° C., following snap freezing in liquid N2 for long term use. Labeling recombinant GAC with small molecule probes was performed by exchanging 1.5 mg of enzyme into 50 mM HEPES, pH 7.2, and 100 mM NaCl (labeling buffer), using a PD10 desalting column (GE healthcare). The enzyme was then incubated with 50 μM (5-fold excess of enzyme) of either AlexaFluor 488 succinimidyl ester or QSY9 succinimidyl ester (Molecular Probes) for 1 hour at 4° C. After 1 hour, the labeling reaction was quenched with 150 mM Tris-HCl, pH 8.5, and unreacted probe was separated from labeled-enzyme using a PD10 desalting column, eluting labeled-GAC back into the high salt-containing buffer. The stoichiometry of labeling was determined using the probe manufacturer's reported molar absorptivity values and instructions. Briefly, the concentration of GAC was determined by first correcting absorbance at 280 nm (Abs280) for each probe, using the reported correction values (0.11 for AlexaFluor 488 and 0.23 for QSY-9) and their absorbance values at their absorbance maxima (495 nm and 562 nm, respectively). The corrected Abs280 was used along with the experimentally determined molar absorptivity of GAC (ε280=38,850 M−1 cm−1). AlexaFluor 488 and QSY-9 probes were quantified using their respective absorbance maxima and the manufacturer's reported molar absorptivity values (ε495=71,000 M−1 cm−1 and ε562=85,000 M−1 cm−1).
Real-time fluorescence monitoring of 968 binding and GAC activity through production of NADH was performed on a Varian Cary Eclipse Fluorometer, whereas small molecule inhibition and binding titrations were performed in a 96-well format in a Tecan Saphire absorbance and fluorescence plate reader. Samples for monitoring real-time binding of 968 to 488-GAC were prepared by adding 10 μL of varying concentrations of 968 prepared in DMSO to an equilibrated 1 mL sample of 10 nM 488-GAC, while observing 488 fluorescence (490 nm excitation/520 nm emission). Similarly, this method was replicated for monitoring real-time binding of 968 to mutant forms of GAC, namely 488-labeled GAC (GD391K) and 488-GAC (D391K, K316E, R459E). Real-time activity assays monitoring 968 binding and NADH production were prepared in 1 mL samples, where 10 units of glutamate dehydrogenase (Sigma) and 2 mM NAD+ (Sigma) were prepared in 50 mM Tris-Acetate, pH 8.5, 0.1 mM EDTA and equilibrated at 20° C. WT GAC (10 nM) was added and allowed to equilibrate 2 minutes before monitoring the fluorescence emission of 488-GAC (490 nm excitation, 520 nm emission) and NADH (340 nm excitation, 490 nm emission). Appropriate dilutions of 968 or BPTES prepared in DMSO were introduced after 30 seconds and allowed to equilibrate for 2 minutes before a 180 μL solution of K2HPO4 and glutamine was added to make a final concentration of 50 mM K2HPO4 and 20 mM glutamine, to initiate GAC activation. The activity of GAC was measured in a coupled assay, by monitoring the NADH produced by glutamate dehydrogenase, which converts the product of the glutaminase-catalyzed reaction, glutamate, to α-ketoglutarate and ammonia by reducing NAD+ to NADH. […]

Row | inhibition of enzyme activity (GAC pre-incubated with 968 before adding phosphate) | SMILES | concentration inhibiting the GAC isoform compared with parent compound 968 (in vitro inhibition, FIG. 9 / FIG. 11)
1 | strongly inhibited | CN(C)c1ccc(C2Nc3ccc4ccccc4c3C3=C2C(=O)CC(C)(C)C3)cc1Br (centres unmarked) [Compound 968] | –
2 | – | CC1(C)CC(=O)C2=C(C1)c1c(ccc3cc4ccccc4cc13)NC2c1ccc(N=[N+]=[N-])cc1 (centres unmarked) [SU-22] | lower concentration than the parent compound, 968
